Reference: patent US9238619B2, “Phenalkylamine derivatives, pharmaceutical compositions containing them, and their use in therapy” (AbbVie Deutschland GmbH & Co. KG, priority 2010, dated 2016)

Molecular target: human GlyT1c transporter (Homo sapiens (Human), UniProt P48067)
Assay: Radioligand binding assays using recombinant CHO cell membranes expressing human GlyT1
Details: read-out: radioligand binding Kiapp
Procedure: Radioligand binding to human GlyT1c transporter-expressing membranes was determined as described in Mezler et al., Molecular Pharmacology 74:1705-1715, 2008.

Sequence of human GlyT1c transporter (P48067 whole entry): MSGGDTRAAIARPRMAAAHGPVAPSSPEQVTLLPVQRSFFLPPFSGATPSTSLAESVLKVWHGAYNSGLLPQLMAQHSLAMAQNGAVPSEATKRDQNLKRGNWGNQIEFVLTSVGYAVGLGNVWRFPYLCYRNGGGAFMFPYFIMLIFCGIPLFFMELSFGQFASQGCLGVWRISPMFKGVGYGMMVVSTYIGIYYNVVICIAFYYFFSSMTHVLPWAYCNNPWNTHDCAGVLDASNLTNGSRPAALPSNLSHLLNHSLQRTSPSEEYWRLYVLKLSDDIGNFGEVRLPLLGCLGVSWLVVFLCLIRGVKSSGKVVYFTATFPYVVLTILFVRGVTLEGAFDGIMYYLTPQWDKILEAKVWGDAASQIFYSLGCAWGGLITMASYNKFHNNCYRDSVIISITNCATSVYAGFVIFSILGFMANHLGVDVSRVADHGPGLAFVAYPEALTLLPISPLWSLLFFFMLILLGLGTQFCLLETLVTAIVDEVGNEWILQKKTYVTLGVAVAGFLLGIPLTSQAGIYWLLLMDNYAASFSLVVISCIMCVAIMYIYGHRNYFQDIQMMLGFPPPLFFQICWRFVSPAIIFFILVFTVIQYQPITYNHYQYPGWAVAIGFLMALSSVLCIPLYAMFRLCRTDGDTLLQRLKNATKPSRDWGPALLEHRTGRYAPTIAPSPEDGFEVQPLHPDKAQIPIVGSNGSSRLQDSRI

Structure (SMILES)	Ki [nM]
CC(C)N1CCC(Cc2ccccc2)(c2cccc(OCCNS(=O)(=O)c3cn(C)cn3)c2)C1 (centres unmarked) [Example 77, 1-Methyl-1H-imidazole-4-sulfonic acid {2-[3-(3-benzyl-1-isopropyl-pyrrolidin-3-yl)-phenoxy]-ethyl}-amide]	≤ 1000
CN1CC(Cc2ccccc2)(c2cccc(OCCNS(=O)(=O)c3cn(C)cn3)c2)C1 [Example 78, 1-Methyl-1H-imidazole-4-sulfonic acid {2-[3-(3-benzyl-1-methyl-azetidin-3-yl)phenoxy]-ethyl}-amide]	≤ 100
